Counter-ions that a name gives are not always drawn.

Among the data in patent US9067934B2, “Bicyclic pyridinones” (Pfizer Inc., priority 2011, dated 2015) are IC50 values, retold here.

The test system of the test is production of amyloid beta protein Aβ(1-42) (γ-secretase) in human WT-APP overexpressing CHO cells. The test is described as follows: Cell-Based γ-Secretase Assay with ELISA Readout. The following applies: human WT-APP overexpressing CHO cells, ~24 hours at 37° C., Aβ(1-42) ELISA; footnotes: a = geometric mean of >15 determinations, b = single determination, c = geometric mean of 7-15 determinations; read-out: Aβ 42B IC50 (Geometric Mean of 2-6 Determinations). A digest of the protocol: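 Human WT-APP-overexpressing CHO cells were pre-cultured 24 h at 37° C, then exposed to compounds (eleven-point half-log series, 1% final DMSO) for ~24 h. Aβ(1-42) in conditioned media was captured with Aβ(1-42)-specific antibody and detected with Eu-labeled 6e10 by DELFIA TRF. IC50 by nonlinear regression against min/max inhibition controls.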
For orientation: In an ELISA, binding on a coated surface is turned into a signal by an enzyme label.

In the case of `Cc1cn(-c2ccc3n(c2=O)CCN(CCOc2cc(C(F)(F)F)nc4c(Cl)cccc24)C3=O)cn1` [Example 63, 2-(2-{[8-chloro-2-(trifluoromethyl)quinolin-4-yl]oxy}ethyl)-7-(4-methyl-1H-imidazol-1-yl)-3,4-dihydro-2H-pyrido[1,2-a]pyrazine-1,6-dione], the IC50 (in general, the midpoint of a concentration-inhibition curve) stood at 0.0766 µM. `COc1ccc2c(OCCN3CCn4c(ccc(-n5cnc(C)c5)c4=O)C3=O)cccc2c1F` [Example 64, 2-{2-[(5-fluoro-6-methoxy-1-naphthyl)oxy]ethyl}-7-(4-methyl-1H-imidazol-1-yl)-3,4-dihydro-2H-pyrido[1,2-a]pyrazine-1,6-dione, trifluoroacetate salt]: the IC50 came to 0.0424 µM.

For `Cc1cn(-c2ccc3n(c2=O)CCN(CCOc2ccccc2-c2ccc(C#N)c(C(F)(F)F)c2)C3=O)cn1` [Example 65, 2′-{2-[7-(4-methyl-1H-imidazol-1-yl)-1,6-dioxo-1,3,4,6-tetrahydro-2H-pyrido[1,2-a]pyrazin-2-yl]ethoxy}-3-(trifluoromethyl)biphenyl-4-carbonitrile], the IC50 was found to be 0.0461 µM.

For `Cc1cn(-c2ccc3n(c2=O)CCN(CCOc2cc(C(F)(F)F)nc4c(Cl)ccc(F)c24)C3=O)cn1` [Example 66, 2-(2-{[8-chloro-5-fluoro-2-(trifluoromethyl)quinolin-4-yl]oxy}ethyl)-7-(4-methyl-1H-imidazol-1-yl)-3,4-dihydro-2H-pyrido[1,2-a]pyrazine-1,6-dione], the IC50 was 0.0524 µM. `Cc1cn(-c2ccc3n(c2=O)CCN(CCOc2ccc(F)c(Cl)c2C(F)(F)F)C3=O)cn1` [Example 67, 2-{2-[3-chloro-4-fluoro-2-(trifluoromethyl)phenoxy]ethyl}-7-(4-methyl-1H-imidazol-1-yl)-3,4-dihydro-2H-pyrido[1,2-a]pyrazine-1,6-dione]: the IC50 was 0.0584 µM.

Regarding `Cc1cn(-c2ccc3n(c2=O)CCN(CCOc2ncc(Cl)c4ccccc24)C3=O)cn1` [Example 68, 2-{2-[(4-chloroisoquinolin-1-yl)oxy]ethyl}-7-(4-methyl-1H-imidazol-1-yl)-3,4-dihydro-2H-pyrido[1,2-a]pyrazine-1,6-dione, trifluoroacetate salt], the IC50 came to 0.0594 µM.

In the case of `Cc1cn(-c2ccc3n(c2=O)CCN(CCOc2ccnc4ccc(C(F)(F)F)cc24)C3=O)cn1` [Example 69, 7-(4-methyl-1H-imidazol-1-yl)-2-(2-{[6-(trtfluoromethyl)quinolin-4-yl]oxy}ethyl)-3,4-dihydro-2H-pyrido[1,2-a]pyrazine-1,6-dione], the half-maximal inhibitory concentration (IC50) was 0.0583 µM. As to `C#CCCCOc1ccc(C(=O)c2cccc(OCCN3CCn4c(ccc(-n5cnc(C)c5)c4=O)C3=O)c2)cc1` [Example 70, 7-(4-methyl-1H-imidazol-1-yl)-2-(2-{3-[4-(pent-4-yn-1-yloxy)benzoyl]phenoxy}ethyl)-3,4-dihydro-2H-pyrido[1,2-a]pyrazine-1,6-dione], the IC50 came to 0.135 µM.

For `Cc1cn(-c2ccc3n(c2=O)CCN(CCOc2cccc4c2c2ccccc2n4C)C3=O)cn1` [Example 71, 2-{2-[(9-methyl-9H-carbazol-4-yl)oxy]ethyl}-7-(4-methyl-1H-imidazol-1-yl)-3,4-dihydro-2H-pyrido[1,2-a]pyrazine-1,6-dione, trifluoroacetate salt], the IC50 was 0.00422 µM. Under `Cc1cn(-c2ccc3n(c2=O)CCN(CCOc2ccccc2-c2cc(C(F)(F)F)no2)C3=O)cn1` [Example 72, 7-(4-methyl-1H-imidazol-1-yl)-2-(2-{2-[3-(trifluoromethyl)isoxazol-5-yl]phenoxy}ethyl)-3,4-dihydro-2H-pyrido[1,2-a]pyrazine-1,6-dione] stands 0.0148 µM; under `Cc1cn(-c2ccc3n(c2=O)CCN(CCOc2ccc(F)c4nc(C(F)(F)F)sc24)C3=O)cn1` [Example 73, 2-(2-{[4-fluoro-2-(trifluoromethyl)-1,3-benzothiazol-7-yl]oxy}ethyl)-7-(4-methyl-1H-imidazol-1-yl)-3,4-dihydro-2H-pyrido[1,2-a]pyrazine-1,6-dione], 0.0437 µM; under `Cc1cn(-c2ccc3n(c2=O)CCN(CCOc2nccc4oc5ccccc5c24)C3=O)cn1` [Example 74, 2-[2-([1]benzofuro[3,2-c]pyridin-1-yloxy)ethyl]-7-(4-methyl-1H-imidazol-1-yl)-3,4-dihydro-2H-pyrido[1,2-a]pyrazine-1,6-dione], 0.0385 µM. On to `Cc1cn(-c2ccc3n(c2=O)CCN(CCOc2ncc(F)cc2-c2csc(C(F)(F)F)n2)C3=O)cn1` [Example 75, 2-[2-({5-fluoro-3-[2-(trifluoromethyl)-1,3-thiazol-4-yl]pyridin-2-yl}oxy)ethyl]-7-(4-methyl-1H-imidazol-1-yl)-3,4-dihydro-2H-pyrido[1,2-a]pyrazine-1,6-dione], for which the IC50 was 0.0623 µM.

Turning to `Cc1cn(-c2ccc3n(c2=O)CCN(CCOc2ccc(F)cc2C2CC(F)(F)C2)C3=O)cn1` [Example 76, 2-{2-[2-(3,3-difluorocyclobutyl)-4-fluorophenoxy]ethyl}-7-(4-methyl-1H-imidazol-1-yl)-3,4-dihydro-2H-pyrido[1,2-a]pyrazine-1,6-dione], the IC50 came out at 0.0586 µM.

In the case of `Cc1cn(-c2ccc3n(c2=O)CCN(CCOc2nsc4ccc(Cl)cc24)C3=O)cn1` [Example 77, 2-{2-[(5-chloro-1,2-benzisothiazol-3-yl)oxy]ethyl}-7-(4-methyl-1H-imidazol-1-yl)-3,4-dihydro-2H-pyrido[1,2-a]pyrazine-1,6-dione], the 50% inhibitory concentration (IC50) was found to be 0.0662 µM. As to `COc1ccc2c(OCCN3CCn4c(ccc(-n5cnc(C)c5)c4=O)C3=O)cccc2c1` [Example 78, 2-{2-[(6-methoxy-1-naphthyl)oxy]ethyl}-7-(4-methyl-1H-imidazol-1-yl)-3,4-dihydro-2H-pyrido[1,2-a]pyrazine-1,6-dione], the IC50 was 0.0875 µM. On to `Cc1cn(-c2ccc3n(c2=O)CCN(CCOc2cccc4sc5ccccc5c24)C3=O)cn1` [Example 79, 2-[2-(dibenzo[b,d]thien-1-yloxy)ethyl]-7-(4-methyl-1H-imidazol-1-yl)-3,4-dihydro-2H-pyrido[1,2-a]pyrazine-1,6-dione], for which the IC50 was 0.00723 µM. On to `Cc1cn(-c2ccc3n(c2=O)CCN(CCOc2ccc(F)c4sc(C(F)(F)F)nc24)C3=O)cn1` [Example 80, 2-(2-{[7-fluoro-2-(trifluoromethyl)-1,3-benzothiazol-4-yl]oxy}ethyl)-7-(4-methyl-1H-imidazol-1-yl)-3,4-dihydro-2H-pyrido[1,2-a]pyrazine-1,6-dione], for which the IC50 came out at 0.152 µM. `Cc1cn(-c2ccc3n(c2=O)CCN(CCOc2cccc(-n4ccc(C(F)(F)F)n4)c2)C3=O)cn1` [Example 81, 7-(4-methyl-1H-imidazol-1-yl)-2-(2-{3-[3-(trifluoromethyl)-1H-pyrazol-1-yl]phenoxy}ethyl)-3,4-dihydro-2H-pyrido[1,2-a]pyrazine-1,6-dione, trifluoroacetate salt]: the IC50 was determined as 0.384 µM. Then `Cc1cn(-c2ccc3n(c2=O)CCN(CCOc2noc4ccc(Cl)cc24)C3=O)cn1` [Example 82, 2-{2-[(5-chloro-1,2-benzisoxazol-3-yl)oxy]ethyl}-7-(4-methyl-1H-imidazol-1-yl)-3,4-dihydro-2H-pyrido[1,2-a]pyrazine-1,6-dione], with 0.209 µM; and `Cc1cn(-c2ccc3n(c2=O)CCN(CCOc2cccc4ccc(F)cc24)C3=O)cn1` [Example 83, 2-{2-[(7-fluoronaphthalen-1-yl)oxy]ethyl}-7-(4-methyl-1H-imidazol-1-yl)-3,4-dihydro-2H-pyrido[1,2-a]pyrazine-1,6-dione], with 0.0123 µM. For `Cc1cn(-c2ccc3n(c2=O)CCN(CCOc2cc(C(F)(F)F)nc4cc(Cl)ccc24)C3=O)cn1` [Example 84, 2-(2-{[7-chloro-2-(trrfluoromethyl)quinolin-4-yl]oxy}ethyl)-7-(4-methyl-1H-imidazol-1-yl)-3,4-dihydro-2H-pyrido[1,2-a]pyrazine-1,6-dione], the IC50 was 0.0715 µM. For the compound `Cc1cn(-c2ccc3n(c2=O)CCN(CCOc2ccc(F)cc2-n2ccc(C(F)(F)F)n2)C3=O)cn1` [Example 85, 2-(2-{4-fluoro-2-[3-(trifluoromethyl)-1H-pyrazol-1-yl]phenoxy}ethyl)-7-(4-methyl-1H-imidazol-1-yl)-3,4-dihydro-2H-pyrido[1,2-a]pyrazine-1,6-dione], the IC50 worked out at 0.106 µM. On to `Cc1cn(-c2ccc3n(c2=O)CCN(CCOc2cnc(C(F)(F)F)c4ccccc24)C3=O)cn1` [Example 86, 7-(4-methyl-1H-imidazol-1-yl)-2-(2-{[1-(trifluoromethyl)isoquinolin-4-yl]oxy}ethyl)-3,4-dihydro-2H-pyrido[1,2-a]pyrazine-1,6-dione, trifluoroacetate salt], for which the IC50 was found to be 0.107 µM. Regarding `Cc1cn(-c2ccc3n(c2=O)CCN(CCOc2ccc(F)c4oc5ccccc5c24)C3=O)cn1` [Example 87, 2-{2-[(4-fluorodibenzo[b,d]furan-1-yl)oxy]ethyl}-7-(4-methyl-1H-imidazol-1-yl)-3,4-dihydro-2H-pyrido[1,2-a]pyrazine-1,6-dione], the IC50 stood at 0.0228 µM.

For `Cc1cn(-c2ccc3n(c2=O)CCN(CCOc2ccccc2-c2cccc(F)c2)C3=O)cn1` [Example 88, 2-{2-[(3′-fluorobiphenyl-2-yl)oxy]ethyl}-7-(4-methyl-1H-imidazol-1-yl)-3,4-dihydro-2H-pyrido[1,2-a]pyrazine-1,6-dione, formate salt], the IC50 is 0.0754 µM. In the case of `Cc1cn(-c2ccc3n(c2=O)CCN(CCOc2ccccc2-c2ccc(F)cc2)C3=O)cn1` [Example 89, 2-{2-[(4′-fluorobiphenyl-2-yl)oxy]ethyl}-7-(4-methyl-1H-imidazol-1-yl)-3,4-dihydro-2H-pyrido[1,2-a]pyrazine-1,6-dione, formate salt], the concentration for half-maximal inhibition (IC50) stood at 0.101 µM.
